Values quoted from earlier work as cited in patent publication US6110491A, “Compound-loaded liposomes and methods for their preparation” (Hermes Biosciences, Inc., priority 1997, dated 2000).
≈ marks a conversion by molar mass, not a printed value. Like-named read-outs stand apart in the source and are kept apart here.

Settings: cited from earlier work; for pH-dependent solubility: 37° C.

Nc1cc(-c2ccncc2)c[nH]c1=O [amrinone]
pH dependent solubility (pH 4.1): 25 mg/ml
pH dependent solubility (pH 6): 0.9 mg/ml
pH dependent solubility (pH 8): 0.9 mg/ml

Nc1nc(O)c2ncn(COC(CO)CO)c2n1 [gancyclovir]
solubility in water (alkaline pH): > 100 mg/mL
solubility in water (pH 7.4): 2.5 mg/mL (≈ 9.79 mM)

CC(C)Cc1ccc(C(C)C(=O)O)cc1 (centres unmarked) [ibuprofen]
solubility (in words) (alkaline pH): soluble at alkaline pH
solubility (in words) (neutral pH): poorly soluble at neutral pH

CCn1cc(C(=O)O)c(=O)c2cc(F)c(N3CCNCC3)cc21 [norfloxacin]
pH-dependent solubility (pH 6.5): 2.8 mg/ml
pH-dependent solubility (pH 7.0): 1.5 mg/ml
pH-dependent solubility (pH 8.0): 1.9 mg/ml
pH-dependent solubility (pH <5.5): > 40 mg/ml
